The text below walks through data of patent publication US20140287024A1, “NANOPARTICLE-BASED DELIVERY SYSTEM WITH OXIDIZED PHOSPHOLIPIDS AS TARGETING LIGANDS FOR THE PREVENTION, DIAGNOSIS AND TREATMENT OF ATHEROSCLEROSIS” (priority 2013, published 2014).

One series concerns the target macrophage CD36 (Homo sapiens, UniProt P16671). The following applies: cited from earlier work.
Another series has as its system MCF7 breast cancer cells. In words: Antiproliferative and proapoptotic effects in MCF7 cells. Type of series: cell-based, human. The conditions noted are these: at 10 μM or lower. The source says: The chemopreventive actions exerted by green tea are thought to be due to its major polyphenol, (−)-epigallocatechin-3-gallate (EGCG). However, the low level of stability and bioavailability in the body makes administering EGCG at chemopreventive doses unrealistic. EGCG encapsulated chitosan-coated nanoliposomes (CSLIPO-EGCG) were synthesized, and their antiproliferative and proapoptotic effects in MCF7 breast cancer cells were observed.

Series [1] can be described thus: Stability of NLCE, CSNLCE and native EGCG in PBS at different pH and temperatures (HPLC). The format is physicochemical. As for the experimental part:
EGCG was detected using a high-performance liquid chromatography (HPLC) system (Waters Corporation, Milford, Mass.) with a UV detector and a ZORBAX SB-C18.5 μm, 150*4.6 mm (Agilent,). The mobile phase was composed of 86% water, 12% acetonitrile, 2% ethyl acetate and 0.043% sulfuric acid, and the flow rate was 1 ml/minute. EGCG was detected at 254 nm.
To determine the stability of NLCE, CSNLCE and native EGCG in a pH range 1-7.4, Hydrochloric acid was added into 200 mM phosphate buffered saline to obtain four different pH solutions (pH=1, 3, 5, 7.4). All samples were then dissolved in these solutions to obtain a final EGCG concentration of 100 μM. The solutions were stored in tightly closed vials and incubated in a 37° C. water bath. EGCG concentrations were measured at 0 h, 0.5 h, 1 h, 1.5 h, 2 h, 2.5 hand 3 h.
[…] To simulate the cell growth, stability was evaluated in the cell culture medium RPMI1640 at 37° C. with or without cells, and with or without superoxide dismutases (SOD, 5 U/ml).

Series [2] in a line: Stability of EGCG in cell culture medium RPMI1640 at 37° C. The conditions noted are these: after 1 h incubation. Type of series: physicochemical. How it is done:
To determine the stability in different temperatures, NLCE, CSNLCE and native EGCG containing 100 μM of EGCG were dissolved in 1×PBS solution (pH 7.4) and incubated at 4° C., 22° C. and 37° C. for 14 d, 19 h and 3 h, respectively. To simulate the cell growth, stability was evaluated in the cell culture medium RPMI1640 at 37° C. with or without cells, and with or without superoxide dismutases (SOD, 5 U/ml).

Series [3] relates to THP-1 derived macrophages. In words: EGCG content in THP-1 derived macrophages. The format is cell-based, human. The conditions noted are these: 100 μM. As for the experimental part:
Human monocytic THP-1 cell line was purchased from the American Type Tissue Culture Collection (ATCC, Rockville, Md.) and grew in a complete medium according to ATCC instructions. The complete medium consisted of RPMI medium supplemented with 10% fetal bovine serum and 0.05 mM of 2-mercaptoethanol. The cells were incubated in a 5% CO2 atmosphere at 37° C. THP-1 cells were differentiated into macrophages by incubating them with the complete medium containing 50 ng/ml PMA for 72 h.
Macrophages derived from THP-1 cells were treated with 100 μM of NLCE, CSNLCE and native EGCG in the complete medium with or without SOD (5 U/ml). After 2 or 4 h incubation at 4° C. or 37° C., cells were washed three times with ice-cold 1×PBS. The attached cells were scraped by 200 μl of 2% ascorbic acid (pH 3) and each well was washed with 200 μl of methanol, which was then combined with 2% ascorbic acid as a mixture. The volume of mixture was measured and internal standard epicatechin was added into the mixture. After one cycle of freezing and thawing, mixtures were sonicated for 2 min in an ice-cold bath using a sonicator (Branson, Inc.). The mixture was centrifuged at 10,000×g for 20 min at 4° C. The clear supernatant solution was collected and injected into the HPLC system. Precipitates were washed with 0.5 ml of deionized water to get rid of acid and dried in the chemical hood overnight. The dried cells were digested by 0.5 N NaOH. Total cellular protein levels were determined by using a bicinchoninic acid (BCA) kit (Pierce, Cramlington). Total cellular uptake was expressed as μg of EGCG per mg of protein.

For series [4] the following is noted: cited from earlier work.
Series [5] relates to cuff-induced evolving atherosclerotic lesion. The conditions noted are these: apolipoprotein E null mice, daily intraperitoneal 10 mg/kg body weight, after 21 days treatment; cited from earlier work.
For series [6], the system named is macrophages and macrophage-derived foam cells. The following applies: in vitro; cited from earlier work.
For series [7] the following is noted: in vitro; cited from earlier work.

macrophage CD36, sequence (P16671 whole entry): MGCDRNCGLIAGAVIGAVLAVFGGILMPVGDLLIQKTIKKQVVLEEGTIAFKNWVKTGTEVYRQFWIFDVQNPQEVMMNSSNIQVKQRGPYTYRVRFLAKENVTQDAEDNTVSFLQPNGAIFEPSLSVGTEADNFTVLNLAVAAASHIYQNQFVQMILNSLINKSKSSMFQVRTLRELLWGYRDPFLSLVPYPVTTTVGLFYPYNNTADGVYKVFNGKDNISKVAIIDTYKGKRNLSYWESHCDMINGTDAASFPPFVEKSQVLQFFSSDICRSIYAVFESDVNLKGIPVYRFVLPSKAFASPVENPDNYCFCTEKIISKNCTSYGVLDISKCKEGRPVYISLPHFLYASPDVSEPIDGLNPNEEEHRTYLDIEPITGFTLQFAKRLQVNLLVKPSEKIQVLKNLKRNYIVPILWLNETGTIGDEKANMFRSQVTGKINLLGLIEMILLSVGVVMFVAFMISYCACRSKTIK

Consider “5-keto-6-octendioic acid esters of 2-lyso-PC [KOdiA-PC]”, for which, at macrophage CD36, the “binding affinity to macrophage CD36” value is reported as “high binding affinity”.
As to `O=C(O[C@@H]1Cc2c(O)cc(O)cc2O[C@@H]1c1cc(O)c(O)c(O)c1)c1cc(O)c(O)c(O)c1` [EGCG, (−)-epigallocatechin-3-gallate], the “antiproliferative and proapoptotic effectiveness” value in the series on MCF7 breast cancer cells was “doesn't have any beneficial effects”. In addition, the EGCG left entry in series [1] (100 μM, 1×PBS pH 7.4, 37° C., after 3 h) is given as “completely degraded”; in series [1] (after incubating for 8 h at 23° C.), 1.52%; in series [2], 3.7%. In series [1] (100 μM, pH 1.0 to 5.0, 37° C., 3 h), the “stability in acidic pH” value is reported as “stable”. The “stability in neutral pH” value in [1] (100 μM, pH 7.4, 37° C., after 3 h) was “not stable and could not be detected”. The same molecule yielded an EGCG degraded in [1] (4° C., after 19 hours, same initial concentration) of 91%. In addition, the “order of stability of EGCG at the same pH” value in series [1] (in all conditions) is “CSNLCE>NLCE>native EGCG”. For the same molecule, the “EGCG content in macrophages” value worked out at 0.098 μg/mg protein in [3] (complete medium containing 5 U/ml of SOD, 2 h incubation at 37° C.) and 0.109 μg/mg protein in series [3] (in the presence of SOD, after 4 h). Also, the “EGCG content in THP-1 derived macrophages” value in [3] (complete medium without SOD, 2 h incubation at 37° C.) is 0.031 μg/mg protein. The “peak plasma EGCG concentration” value in [4] (after drinking 2 cups of green tea) was 0.15 µM. Besides, the absolute oral bioavailability entry in [4] (after drinking tea containing catechins at 10 mg/kg body weight, humans and research animals) is reported as “about 0.1%”. Further, the “reduction of atherosclerotic lesion size” value in series [5] is reported as 55%. The “apoptosis of macrophages and macrophage-derived foam cells” value in [6] is “induce apoptosis”. Further, in series [6], the “expression and production of inflammatory factors” value was “inhibit”. The “stability in water and physiological fluid” value in series [7] is given as “unstable”.
In the case of “1-Palmitoyl-2-(11-carboxy-9-oxoundec-10-enoyl)-sn-glycero-3-phosphatidylcholine [KDdiA-PC]”, on macrophage CD36, the “CD36 binding affinity conferred, relative potency” value is on record as “more potently than any hydroperoxy phospholipid species” and the “binding affinity to macrophage CD36” value is recorded as “high binding affinity”.
